Assay results taken from patent publication US12082933B2, “Methods of using brain temporal dynamics” (priority 2016, dated 2024).

What was measured:
[1] = Open-label 8-week escitalopram treatment trial, depressive symptoms by MADRS; assay type: in vivo, human; settings: escitalopram 10-20 mg daily, week 8
Excerpt: 95 participants were included in this study. Data were collected as part of the CAN-BIND 1 project (Lam et al., 2016). Participants were outpatients aged 18-60 years of age, and met DSM-IV-TR (2000) criteria for major depressive episode (MDE) in MDD, confirmed by the Mini international Neuropsychiatric inventory (MINI) (Sheehan et al., 1998). Data were gathered across four study sites: University Health Network, Centre for Addiction and Mental Health in Toronto, Queen's University in Kingston, Ontario, Canada, and University of British Columbia in Vancouver, British Columbia, Canada. Study procedures were approved by research ethics institutional review boards at each site. All participants signed written informed consent prior to participation. At study enrollment, all participants were experiencing a MDE duration≥3 months with a Montgomery Asberg Depression Rating Scale (MAD RS) score≥24. All participants were free of psychotropic medications for at least 5 half-lives before baseline Visit 1. Participants were excluded if they had: 1) any Axis I diagnosis other than MDD, that was considered the primary diagnosis; 2) diagnosis of Bipolar Disorder Type I or II; 3) a significant Axis II diagnosis (borderline, antisocial); 4) high suicidal risk, 5) substance dependence/abuse in the past 6 months; 6) presence of significant neurological disorders, 7) head trauma, or 8) other unstable medical condition. Exclusionary criteria related to the medications included: having failed four or more adequate pharmacological interventions, having started psychological treatment within the past 3 months with the intent of continuing the treatment, previously having failed escitalopram treatment or showing intolerance to escitalopram, and being at risk for hypomanic switch (i.e. with a history of antidepressant induced hypomania). In addition, female participants who were pregnant or breastfeeding were excluded. […] The study period was eight weeks and participants were assessed with MADRS every 2 weeks starting from before administration of study medication (baseline). […]

[2] = Resting-state eyes closed EEG multi-scale entropy (MSE) during escitalopram treatment; assay type: in vivo, human
Method: Subjects were instructed to sit quietly in a testing room, while 8 minute of resting-state eyes closed EEG were recorded. Subjects were instructed to remain still, reduce eye blinks or movement to a minimum, and refrain from falling asleep.
Data were imported into MATLAB (The Math Works. Inc. Natick, MA, USA) for preprocessing. The open source EEGLAB toolbox version 12.0 (Delorme and Makeig, 2004) were used for data import. The EEG signals were epoched into segments of two seconds duration. Then a standardized custom-made and stream-lined open source software develop by our team, EEGERP toolbox (http:www.tmseeg.com/multisiteprojects), was used to preprocess the data in 6 steps as described elsewhere (Farzan et al., 2017). All data were brought down to sampling rate of 512 Hz for consistency across all sites, and average re-referenced in the final preprocessing step.
MSE was examined identical to a prior publication (Farzan et al., Brain 2016). […] First, for a given time series {xi,x2, . . . xN}, the multiple coarse-grained time series {y1^(τ), y2^(τ), . . . , yN^(τ)} at scale factor τ were calculated by averaging the data points within non-overlapping windows of increasing length τ. Each element of the coarse-grained time series yj^(τ), was calculated according to the equation:
[formula] […] Second, the degree of predictability was measured for each of the multiple coarse-grained time series {y1^(τ), y2^(τ), . . . , yN^(τ)} using SampleEn. SampleEn was calculated according to the equation: SampleEn(r,m,M)=−In(C(m+1)/C(m)) (2) where C(m) is the total number of pairs of in consecutive similar data points, C(m+1) is the total number of pairs of m+1 consecutive similar data points in the multiple coarse-grained time series. SampleEn quantifies the variability of time series by estimating the predictability of amplitude patterns across a time series. […] MSE was calculated for a 30 second continuous epoch.” […]

[3] = six months of treatment; specifically in younger adults; cited from earlier work

Structure (SMILES) | MADRS Post Week8 (mean +/− std) ([1]; All Groups (n = 95)) | MADRS Post Week8 (mean +/− std) ([1]; Non-responders (n = 50)) | MADRS Post Week8 (mean +/− std) ([1]; Responders (n = 45)) | Change in MSE pre (baseline) to post treatment (week 8) ([2]; non-responders) | Change in MSE at week 2 relative to pre treatment (baseline) ([2]; non-responders, scale factor>18, lateral frontal, fronto-temporal, parieto-occipital regions, clusters p<0.05) | Change in MSE pre (baseline) to post treatment (week 8) ([2]; responders, fronto-parietal brain regions, cluster p=0.09) | Effect on excess complexity (Lempel-Ziv Complexity) in depression [3]
CN(C)CCC[C@@]1(c2ccc(F)cc2)OCc2cc(C#N)ccc21 [Escitalopram] | 15.4 +/− 9.7 | 22.3 +/− 7.18 | 7.62 +/− 5.24 | No significant changes | reduction of MSE in coarse time-scales | reduction of MSE in fine time-scales | –
CN1CCN2c3ncccc3Cc3ccccc3C2C1 (stereo not shown) [mirtazapine] | – | – | – | – | – | – | normalized the excess complexity in depression
